Laboratory results as given in patent US8044066B2, “Derivatives of pyrrolopyridine-2-carboxamides, preparation thereof and therapeutic application thereof” (Sanofi-Aventis, priority 2007, dated 2011).

Experiments:
[1] = target: T1, TRPV1 receptor (Rattus norvegicus, UniProt O35433); assay: Inhibition of the current induced with capsaicin on rat DRGs (whole-cell patch-clamp); type: cell-based; conditions: DRG neuron; compound at 10 nM; capsaicin 1 μM; newborn rat DRG neurons
T1 construct: The neurons of the DRG naturally express the TRPV1 receptor; endogenous in cells; host or cells: primary culture of newborn rat dorsal root ganglion (DRG) neurons
T1 sequence (O35433 whole entry): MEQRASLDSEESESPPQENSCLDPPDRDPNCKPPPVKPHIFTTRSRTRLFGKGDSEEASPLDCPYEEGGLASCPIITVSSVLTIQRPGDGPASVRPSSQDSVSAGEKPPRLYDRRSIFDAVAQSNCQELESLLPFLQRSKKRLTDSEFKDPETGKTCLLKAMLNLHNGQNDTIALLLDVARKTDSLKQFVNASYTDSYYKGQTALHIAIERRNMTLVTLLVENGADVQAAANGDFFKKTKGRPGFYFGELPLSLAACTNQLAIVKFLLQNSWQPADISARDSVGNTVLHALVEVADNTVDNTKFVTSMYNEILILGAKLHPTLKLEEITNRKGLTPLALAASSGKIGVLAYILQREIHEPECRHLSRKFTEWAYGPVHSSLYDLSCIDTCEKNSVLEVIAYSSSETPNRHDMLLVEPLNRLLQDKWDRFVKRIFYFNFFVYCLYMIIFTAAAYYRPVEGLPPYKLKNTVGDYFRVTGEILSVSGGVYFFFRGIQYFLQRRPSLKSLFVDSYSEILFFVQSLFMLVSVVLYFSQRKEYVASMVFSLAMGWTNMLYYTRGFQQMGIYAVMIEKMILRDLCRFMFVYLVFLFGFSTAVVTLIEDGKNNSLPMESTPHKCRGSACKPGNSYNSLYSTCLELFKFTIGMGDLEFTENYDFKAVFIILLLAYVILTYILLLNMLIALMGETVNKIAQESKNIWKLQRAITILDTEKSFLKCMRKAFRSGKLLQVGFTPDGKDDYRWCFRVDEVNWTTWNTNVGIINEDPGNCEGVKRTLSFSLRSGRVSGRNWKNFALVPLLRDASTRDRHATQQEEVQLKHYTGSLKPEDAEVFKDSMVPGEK
Protocol: Test of Inhibition of the Current Induced with Capsaicin on Rat DRGs
Primary Culture of Rat Dorsal Root Ganglion (DRG) Cells:
The neurons of the DRG naturally express the TRPV1 receptor.
The primary cultures of newborn rat DRGs are prepared using 1-day-old rats. Briefly, after dissection, the ganglions are trypsinized and the cells dissociated by mechanical trituration. The cells are resuspended in an Eagle basal culture medium containing 10% fetal calf serum, 25 mM KCl, 2 mM glutamine, 100 μg/ml gentamicin and 50 ng/ml of NGF, and then deposited on glass slides coated with laminin (0.25×10^6 cells per slide), which are then placed in Corning 12-well dishes. The cells are incubated at 37° C. in a humidified atmosphere containing 5% CO2 and 95% air. […]
The measuring chambers (volume 800 μl) containing the cell preparation are placed on the platform of an inverted microscope (Olympus IMT2) equipped with Hoffman optics (Modulation Contrast, New York) and observed at a magnification of 400×. […] The overall currents (membrane potential set at −60 mV) are recorded with an Axopatch 1D amplifier (Axon Instruments, Foster city, Calif.), connected to a PC running the Pclamp8 software (Axon Instrument). The current plots are recorded on paper and simultaneously digitized (sampling frequency 15 to 25 Hz) and acquired on the hard drive of the PC. […]

Row | melting point | Structure (SMILES) | inhibition at 0.01 µM [1]
1 | 236 to 238 °C | Cc1nc2cc(NC(=O)c3cc4cccnc4n3-c3ccncc3)ccc2s1 | –
2 | – | Cc1nc2cc(NC(=O)c3cc4cc(F)cnc4n3Cc3ccncc3)ccc2s1 [Compound 1, N-(2-methylbenzothiazol-5-yl)-5-fluoro-1-[(4-pyridyl)methyl]-1H-pyrrolo[2,3-b]pyridine-2-carboxamide] | 50%
